Data on one compound can be found in paper PMC10017155 (Aging and Disease, 2023).

Assay [1] deals with Aβ16. Briefly: NMR titration, Aβ16 with HAEE and Zn2+. In kind it is binding. To be noted: 278 K, pH 6.8, Zn2+. As for the experimental part:
(§1) Peptides Aβ16, H6R-Aβ16 and isoD7-Aβ16 at the concentration of 0.2 - 8mM were dissolved in 10-20 mM bis-Tris-d19 (2,2-Bis(hydroxymethyl)-2,2′,2"-nitrilotrie-thanol-d19 with 98% ^2D enrichment) buffer solution (pH 6.8). Sodium salt of 3-(trimethylsilyl) propionic-2,2,3,3-d4 acid (DSS) at a concentration of 10-20 μM was added as the standard. NMR spectra were measured at 278 K in 90% H2O/10% D2O with Bruker AVANCE 600 MHz spectrometer equipped with triple resonance (^1H, ^13C and ^15N) pulsed field z gradient probe. 1D NMR spectra were processed and analyzed using the Mnova software (Mestrelab Research, Spain). In order to monitor peptide-peptide interactions NMR titration experiments were carried out. […] 1D spectra were recorded for each titration point.

For assay [2], the system named is H6R-Aβ16. The assay is described as follows: NMR titration, H6R-Aβ16 dimer with HAEE and Zn2+. It counts as binding, human. To be noted: 1H NMR, H6R-Aβ16 1.6 mM, pH 6.8, 0.5 equivalent ZnCl2, titration by HAEE; V12 methyl signal at 0.2 ppm. How it is done: as §1
Figure 1. Interaction of HAEE with beta-amyloid. (A) A model for the contribution of isoD7-Aβ to AD pathology, and the possible ways of preventing its deleterious effects. Aβ spontaneously converts into isoD7-Aβ, which is accumulated over age, likely due to reduced Aβ clearance. Isomerized Aβ promotes AD pathology, potentially via formation of Zn-bound complexes serving as the seeds for a generation of neurotoxic oligomers. […] The amount of dimeric form is determined by the intensity of its characteristic signal at 0.2 ppm. […]

“Also recorded” adds a separate entry of the source. Peptide text beside a SMILES is read from it.

Turning to `CC(=O)N[C@@H](Cc1c[nH]cn1)C(=O)N[C@@H](C)C(=O)N[C@@H](CCC(=O)O)C(=O)N[C@@H](CCC(=O)O)C(N)=O` [HAEE, Ac-HAEE-NH2] (Ac-HAEE-NH2), the “Signal at 0.2 ppm (characteristic of the dimeric form of the Aβ metal binding domain)” value in assay [1] (1H NMR) is on record as “eliminated the signal”. In addition, the “Zinc-dependent dimerization of Aβ16” value in assay [1] (NMR) is on record as “inhibits”. Moreover, the “Amount of dimeric form of H6R-Aβ16 upon addition of HAEE” value in assay [2] was “decrease in the amount of dimeric H6R-Aβ16; also recorded: disappearance of the dimeric form; also recorded: shifts the equilibrium between monomeric and dimeric Aβ towards its monomeric form”.
